Reference: patent publication EP4707280A1, “1,4-CINEOLE DERIVATIVE AND INTERMEDIATE THEREOF, HERBICIDE CONTAINING SAID DERIVATIVE AS ACTIVE INGREDIENT, METHOD FOR USING HERBICIDE, AND METHOD FOR PREPARING AGROCHEMICAL COMPOSITION” (HOKKO CHEMICAL INDUSTRY CO., LTD., priority 2023, dated 2024)

What was measured:
Assay type in all cases: in vivo
[1] = tested on: Echinochloa crus-galli var. formosensis; experiment: Test Example 6: herbicidal effect test by application during growth period of paddy rice (low dose); conditions: Echinochloa crus-galli; 7.5 g per 10 ares; applied seven days after sowing, flooded pots; 14 days after application; read-out: weed inhibition rate
How it was run: (§1)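 Low-dose water application, 7.5 g a.i. per 10 ares, given by dropper into flooded pots (about 3 cm depth) 7 days after sowing of 30 weed seeds each at 0–1 cm. Evaluation of inhibition (%) took place 14 days later, duplicate per rate.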

Echinochloa crus-galli [2] = experiment: Test Example 3: herbicidal effect test by soil application in upland field; conditions: Echinochloa crus-galli, 120 g per 10 ares, sprayed one day after sowing, 14 days after application, read-out: weed inhibition rate
How it was run: (§2)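 Pre-emergence test: seeds mixed into top 1 cm of alluvial loam upland soil in pots; emulsifiable concentrate diluted in water sprayed on soil one day after sowing at 100 L/10 a, 120 g a.i./10 a. Weed inhibition rate (%) scored at 14 days, in duplicate.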

Digitaria ciliaris [3] = experiment: as above; conditions: Digitaria ciliaris, 120 g per 10 ares, sprayed one day after sowing, 14 days after application, read-out: weed inhibition rate
How it was run: as §2

Digitaria ciliaris [4] = experiment: Test Example 4: herbicidal effect test by stem and leaf treatment in upland field; conditions: Digitaria ciliaris; 120 g per 10 ares; sprayed seven days after sowing, upland soil; 14 days after application; read-out: weed inhibition rate
Echinochloa crus-galli [5] = experiment: Test Example 7: herbicidal effect test by soil application in upland field (low dose); conditions: Echinochloa crus-galli, 7.5 g per 10 ares, sprayed one day after sowing, 14 days after application, read-out: weed inhibition rate
How it was run: (§3)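 Duplicate pots of alluvial loam, seeds incorporated in the surface 1 cm. Soil surface sprayed 1 d after sowing (EC in water, 100 L/10 a; 7.5 g a.i./10 a). Endpoint: % inhibition, day 14.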

Digitaria ciliaris [6] = experiment: as above; conditions: Digitaria ciliaris, 7.5 g per 10 ares, sprayed one day after sowing, 14 days after application, read-out: weed inhibition rate
How it was run: as §3

Monochoria vaginalis = experiment: Test Example 6: herbicidal effect test by application during growth period of paddy rice (low dose); conditions: Pontederia vaginalis; 7.5 g per 10 ares; applied seven days after sowing, flooded pots; 14 days after application; read-out: weed inhibition rate
How it was run: as §1

CC(C)CC1C[C@]2(C)O[C@@]1(C(C)C)C[C@H]2OCc1ccccc1F (stereo partly drawn) [1-915, (1S,2R,4R)-2-((2-fluorobenzyl)oxy)-5-isobutyl-4-isopropyl-1-methyl-7-oxabicyclo[2.2.1]heptane]
≥ 80%: inhibition at 75 g/ha [1] | inhibition at 1200 g/ha (Echinochloa crus-galli [2]) | inhibition at 1200 g/ha (Digitaria ciliaris [3]) | inhibition at 1200 g/ha (Digitaria ciliaris [4])

Cc1ccccc1CO[C@@H]1C[C@]2(C(C)C)O[C@@]1(C)C[C@@H]2I [1-741, (1S,2R,4R,5S)-5-iodo-1-methyl-2-[(2-methylphenyl)methoxy]-4-isopropyl-7-oxabicyclo[2.2.1]heptane]
≥ 80%: inhibition at 75 g/ha (Echinochloa crus-galli [5]) | inhibition at 75 g/ha (Digitaria ciliaris [6]) | inhibition at 75 g/ha [1] | inhibition at 1200 g/ha (Echinochloa crus-galli [2]) | inhibition at 1200 g/ha (Digitaria ciliaris [3]) | inhibition at 1200 g/ha (Digitaria ciliaris [4])

CC(C)[C@]12C[C@@H](OCc3c(F)cccc3Br)[C@](C)(C[C@@H]1Br)O2 [1-1600, (1S,2R,4R,5S)-5-bromo-2-[(2-bromo-6-fluorophenyl)methoxy]-1-methyl-4-isopropyl-7-oxabicyclo[2.2.1]heptane]
≥ 80%: inhibition at 75 g/ha (Echinochloa crus-galli [5]) | inhibition at 75 g/ha (Digitaria ciliaris [6]) | inhibition at 75 g/ha (Monochoria vaginalis) | inhibition at 75 g/ha [1] | inhibition at 1200 g/ha (Echinochloa crus-galli [2]) | inhibition at 1200 g/ha (Digitaria ciliaris [3]) | inhibition at 1200 g/ha (Digitaria ciliaris [4])

CC(C)[C@]12C[C@@H](OCc3ccc(Cl)cc3Cl)[C@](C)(C[C@@H]1Br)O2 [1-717, (1S,2R,4R,5S)-5-bromo-2-[(2,4-dichlorophenyl)methoxy]-1-methyl-4-isopropyl-7-oxabicyclo[2.2.1]heptane]
≥ 80%: inhibition at 75 g/ha [1] | inhibition at 1200 g/ha (Echinochloa crus-galli [2]) | inhibition at 1200 g/ha (Digitaria ciliaris [3]) | inhibition at 1200 g/ha (Digitaria ciliaris [4])

CC(C)[C@]12C[C@@H](OCc3c(F)cccc3Cl)[C@](C)(CC1=O)O2 [2-28, (1R,4S,5R)-5-((2-chloro-6-fluorobenzyl)oxy)-1-isopropyl-4-methyl-7-oxabicyclo[2.2.1]heptan-2-one]
≥ 80%: inhibition at 75 g/ha (Echinochloa crus-galli [5]) | inhibition at 75 g/ha (Digitaria ciliaris [6]) | inhibition at 75 g/ha (Monochoria vaginalis) | inhibition at 75 g/ha [1] | inhibition at 1200 g/ha (Echinochloa crus-galli [2]) | inhibition at 1200 g/ha (Digitaria ciliaris [3]) | inhibition at 1200 g/ha (Digitaria ciliaris [4])

CC(C)[C@]12C[C@@H](OCc3cccc(F)c3)[C@](C)(C[C@@H]1Br)O2 [1-690, (1S,2R,4R,5S)-5-bromo-2-[(3-fluorophenyl)methoxy]-1-methyl-4-isopropyl-7-oxabicyclo[2.2.1]heptane]
≥ 80%: inhibition at 75 g/ha (Echinochloa crus-galli [5]) | inhibition at 75 g/ha (Digitaria ciliaris [6]) | inhibition at 75 g/ha (Monochoria vaginalis) | inhibition at 75 g/ha [1] | inhibition at 1200 g/ha (Echinochloa crus-galli [2]) | inhibition at 1200 g/ha (Digitaria ciliaris [3]) | inhibition at 1200 g/ha (Digitaria ciliaris [4])

CC(C)[C@]12C[C@@H](OCc3ccccc3Br)[C@](C)(CC1=O)O2 [2-13, (1R,4S,5R)-5-((2-bromobenzyl)oxy)-1-isopropyl-4-methyl-7-oxabicyclo[2.2.1]heptan-2-one]
≥ 80%: inhibition at 75 g/ha (Echinochloa crus-galli [5]) | inhibition at 75 g/ha (Digitaria ciliaris [6]) | inhibition at 75 g/ha (Monochoria vaginalis) | inhibition at 75 g/ha [1] | inhibition at 1200 g/ha (Echinochloa crus-galli [2]) | inhibition at 1200 g/ha (Digitaria ciliaris [3]) | inhibition at 1200 g/ha (Digitaria ciliaris [4])

CCCO[C@H]1C[C@]2(C)O[C@@]1(C(C)C)C[C@H]2OCc1ccccc1F [1-1604, (1S,2R,4R,SS)-2-[(2-fluorophenyl)methoxy]-1-methyl-4-isopropyl-5-propoxy-7-oxabicyclo[2.2.1]heptane]
≥ 80%: inhibition at 75 g/ha (Echinochloa crus-galli [5]) | inhibition at 75 g/ha (Digitaria ciliaris [6]) | inhibition at 75 g/ha (Monochoria vaginalis) | inhibition at 75 g/ha [1] | inhibition at 1200 g/ha (Echinochloa crus-galli [2]) | inhibition at 1200 g/ha (Digitaria ciliaris [3]) | inhibition at 1200 g/ha (Digitaria ciliaris [4])

Cc1ccccc1CO[C@@H]1C[C@]2(C(C)C)O[C@@]1(C)C[C@@H]2Br [1-16, (1S,2R,4R,5S)-5-bromo-1-methyl-2-[(2-methylphenyl)methoxy]-4-isopropyl-7-oxabicyclo[2.2.1]heptane]
≥ 80%: inhibition at 75 g/ha (Echinochloa crus-galli [5]) | inhibition at 75 g/ha [1] | inhibition at 1200 g/ha (Echinochloa crus-galli [2]) | inhibition at 1200 g/ha (Digitaria ciliaris [3]) | inhibition at 1200 g/ha (Digitaria ciliaris [4])

Cc1cccc(CO[C@@H]2C[C@]3(C(C)C)O[C@@]2(C)C[C@@H]3Br)c1 [1-680, (1S,2R,4R,5S)-5-bromo-1-methyl-2-[(3-methylphenyl)methoxy]-4-isopropyl-7-oxabicyclo[2.2.1]heptane]
≥ 80%: inhibition at 75 g/ha (Echinochloa crus-galli [5]) | inhibition at 75 g/ha (Digitaria ciliaris [6]) | inhibition at 75 g/ha [1] | inhibition at 1200 g/ha (Echinochloa crus-galli [2]) | inhibition at 1200 g/ha (Digitaria ciliaris [3]) | inhibition at 1200 g/ha (Digitaria ciliaris [4])

CC(C)[C@]12C[C@@H](OCc3ccc(Cl)cc3)[C@](C)(C[C@@H]1Br)O2 [1-693, (1S,2R,4R,5S)-5-bromo-2-[(4-chlorophenyl)methoxy]-1-methyl-4-isopropyl-7-oxabicyclo[2.2.1]heptane]
≥ 80%: inhibition at 75 g/ha (Echinochloa crus-galli [5]) | inhibition at 75 g/ha [1] | inhibition at 1200 g/ha (Echinochloa crus-galli [2]) | inhibition at 1200 g/ha (Digitaria ciliaris [3]) | inhibition at 1200 g/ha (Digitaria ciliaris [4])

CC(C)[C@]12C[C@@H](OCc3cccc(Cl)c3)[C@](C)(C[C@@H]1Br)O2 [1-692, (1S,2R,4R,5S)-5-bromo-2-[(3-chlorophenyl)methoxy]-1-methyl-4-isopropyl-7-oxabicyclo[2.2.1]heptane]
≥ 80%: inhibition at 75 g/ha (Echinochloa crus-galli [5]) | inhibition at 75 g/ha (Digitaria ciliaris [6]) | inhibition at 75 g/ha [1] | inhibition at 1200 g/ha (Echinochloa crus-galli [2]) | inhibition at 1200 g/ha (Digitaria ciliaris [3]) | inhibition at 1200 g/ha (Digitaria ciliaris [4])

CC(C)[C@]12C[C@@H](OCc3cc(F)ccc3F)[C@](C)(CC1=O)O2 [2-18, (1R,4S,5R)-5-((2,5-difluorobenzyl)oxy)-1-isopropyl-4-methyl-7-oxabicyclo[2.2.1]heptan-2-one]
≥ 80%: inhibition at 75 g/ha (Echinochloa crus-galli [5]) | inhibition at 75 g/ha (Digitaria ciliaris [6]) | inhibition at 75 g/ha [1] | inhibition at 1200 g/ha (Echinochloa crus-galli [2]) | inhibition at 1200 g/ha (Digitaria ciliaris [3]) | inhibition at 1200 g/ha (Digitaria ciliaris [4])

CC(C)[C@]12C[C@@H](OCc3ccccc3F)[C@](C)(C[C@@H]1OCC1CC1)O2 [1-1603, (1S,2R,4R,5S)-5-(cyclopropylmethoxy)-2-[(2-fluorophenyl)methoxy]-1-methyl-4-isopropyl-7-oxabicyclo[2.2.1]heptane]
≥ 80%: inhibition at 75 g/ha (Echinochloa crus-galli [5]) | inhibition at 75 g/ha (Digitaria ciliaris [6]) | inhibition at 75 g/ha [1] | inhibition at 1200 g/ha (Echinochloa crus-galli [2]) | inhibition at 1200 g/ha (Digitaria ciliaris [3]) | inhibition at 1200 g/ha (Digitaria ciliaris [4])

COC1(OC)C[C@]2(C)O[C@@]1(C(C)C)C[C@H]2OCc1ccccc1F [1-935, (1R,4S,5R)-5-((2-fluorobenzyl)oxy)-1-isopropyl-2,2-dimethoxy-4-methyl-7-oxabicyclo[2.2.1]heptane]
≥ 80%: inhibition at 75 g/ha (Digitaria ciliaris [6]) | inhibition at 75 g/ha [1] | inhibition at 1200 g/ha (Echinochloa crus-galli [2]) | inhibition at 1200 g/ha (Digitaria ciliaris [3]) | inhibition at 1200 g/ha (Digitaria ciliaris [4])

CC(C)[C@]12C[C@@H](OCc3c(Cl)cccc3Cl)[C@](C)(CC1=O)O2 [2-26, (1R,4S,5R)-5-((2,6-dichlorobenzyl)oxy)-1-isopropyl-4-methyl-7-oxabicyclo[2.2.1]heptan-2-one]
≥ 80%: inhibition at 75 g/ha (Echinochloa crus-galli [5]) | inhibition at 75 g/ha (Digitaria ciliaris [6]) | inhibition at 75 g/ha [1] | inhibition at 1200 g/ha (Echinochloa crus-galli [2]) | inhibition at 1200 g/ha (Digitaria ciliaris [3]) | inhibition at 1200 g/ha (Digitaria ciliaris [4])

CC(C)[C@]12C[C@@H](OCc3cccc(F)c3F)[C@](C)(CC1=O)O2 [2-14, (1R,4S,5R)-5-((2,3-difluorobenzyl)oxy)-1-isopropyl-4-methyl-7-oxabicyclo[2.2.1]heptan-2-one]
≥ 80%: inhibition at 75 g/ha (Echinochloa crus-galli [5]) | inhibition at 75 g/ha (Digitaria ciliaris [6]) | inhibition at 75 g/ha [1] | inhibition at 1200 g/ha (Echinochloa crus-galli [2]) | inhibition at 1200 g/ha (Digitaria ciliaris [3]) | inhibition at 1200 g/ha (Digitaria ciliaris [4])

Cc1cccc(C)c1CO[C@@H]1C[C@]2(C(C)C)O[C@@]1(C)CC2=O [2-5, (1R,4S,5R)-5-((2,6-dimethylbenzyl)oxy)-1-isopropyl-4-methyl-7-oxabicyclo[2.2.1]heptan-2-one]
≥ 80%: inhibition at 75 g/ha (Echinochloa crus-galli [5]) | inhibition at 75 g/ha (Digitaria ciliaris [6]) | inhibition at 1200 g/ha (Echinochloa crus-galli [2]) | inhibition at 1200 g/ha (Digitaria ciliaris [3]) | inhibition at 1200 g/ha (Digitaria ciliaris [4])

CC(C)[C@]12C[C@@H](OCc3cccs3)[C@](C)(C[C@@H]1Br)O2 [1-721, (1S,2R,4R,5S)-5-bromo-1-methyl-4-isopropyl-2-(thiophen-2-ylmethoxy)-7-oxabicyclo[2.2.1]heptane]
≥ 80%: inhibition at 75 g/ha (Echinochloa crus-galli [5]) | inhibition at 75 g/ha (Digitaria ciliaris [6]) | inhibition at 75 g/ha (Monochoria vaginalis) | inhibition at 75 g/ha [1] | inhibition at 1200 g/ha (Echinochloa crus-galli [2]) | inhibition at 1200 g/ha (Digitaria ciliaris [3])

Cc1cccc(C)c1CO[C@@H]1C[C@@]2(C(C)C)C=C[C@]1(C)O2 [3-3, (1R,4S,5R)-5-[(2,6-dimethylphenyl)methoxy]-4-methyl-1-isopropyl-7-oxabicyclo[2.2.1]hept-2-ene]
≥ 80%: inhibition at 75 g/ha [1] | inhibition at 1200 g/ha (Echinochloa crus-galli [2]) | inhibition at 1200 g/ha (Digitaria ciliaris [3]) | inhibition at 1200 g/ha (Digitaria ciliaris [4])

CC(C)[C@]12C[C@@H](OCc3ccccc3F)[C@](C)(C[C@@H]1OS(=O)(=O)C(F)(F)F)O2 [1-525, (1R,2S,4S,5R)-5-((2-fluorobenzyl)oxy)-1-isopropyl-4-methyl-7-oxabicyclo[2.2.1]heptan-2-yl trifluoromethanesulfonate]
≥ 80%: inhibition at 75 g/ha (Digitaria ciliaris [6]) | inhibition at 75 g/ha [1] | inhibition at 1200 g/ha (Echinochloa crus-galli [2]) | inhibition at 1200 g/ha (Digitaria ciliaris [3]) | inhibition at 1200 g/ha (Digitaria ciliaris [4])
